Test results taken from US11247985B2, “Phenyl indole allosteric inhibitors of P97 ATPase” (University of Pittsburgh—Of the Commonwealth System of …, priority 2015, dated 2022).

Target: p97 ATPase WT (Homo sapiens (Human), UniProt P55072)
Assay: p97 ADP-Glo assay
Assay type: biochemical
Details: Table 3; read-out: ADPGlo IC50
Text: ADP-Glo™ (Promega Corp.) is a bioluminescent, homogeneous assay that measures ADP formed from a biochemical reactions. Because of its high sensitivity, the assay is suitable for monitoring enzyme activities at very early substrate conversions requiring very low amount of enzymes.
The ADP-Glo assay can be conducted as described in Chou, T.-F.; Bulfer, S. L.; Weihl, C.

p97 ATPase WT, sequence (P55072 whole entry): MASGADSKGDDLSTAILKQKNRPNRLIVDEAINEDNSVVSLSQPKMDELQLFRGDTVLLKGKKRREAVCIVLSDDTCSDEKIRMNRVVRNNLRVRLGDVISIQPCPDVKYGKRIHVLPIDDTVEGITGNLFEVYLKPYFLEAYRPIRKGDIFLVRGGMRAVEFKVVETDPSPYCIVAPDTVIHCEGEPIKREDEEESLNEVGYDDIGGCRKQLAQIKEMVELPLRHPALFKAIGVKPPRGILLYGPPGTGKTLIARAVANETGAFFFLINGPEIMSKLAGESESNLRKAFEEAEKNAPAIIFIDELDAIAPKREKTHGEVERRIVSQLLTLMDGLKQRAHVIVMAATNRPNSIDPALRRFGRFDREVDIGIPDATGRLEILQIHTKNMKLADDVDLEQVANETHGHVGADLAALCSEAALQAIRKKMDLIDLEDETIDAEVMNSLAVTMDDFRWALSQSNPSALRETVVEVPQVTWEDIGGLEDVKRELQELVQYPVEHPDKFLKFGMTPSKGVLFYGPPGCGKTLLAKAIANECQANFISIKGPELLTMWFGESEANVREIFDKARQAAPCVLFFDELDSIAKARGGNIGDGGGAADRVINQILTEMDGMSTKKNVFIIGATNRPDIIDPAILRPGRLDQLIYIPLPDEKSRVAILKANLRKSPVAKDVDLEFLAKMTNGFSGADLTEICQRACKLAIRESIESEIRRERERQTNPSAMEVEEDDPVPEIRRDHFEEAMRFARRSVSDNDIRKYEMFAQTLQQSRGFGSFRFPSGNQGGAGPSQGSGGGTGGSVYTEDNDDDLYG

| Compound | IC50 [nM] |
| --- | --- |
| CCC(C)N1CCN(CCCNC2CCN(c3cccc(-c4cc5ccccc5[nH]4)c3)CC2)CC1 (centres unmarked) | 640 |
| COC(=O)c1ccc2[nH]c(-c3cccc(N4CCC(NC5CCN(C(C)C)CC5)CC4)c3)cc2c1 | 510 |
| CC(C)N1CCN(C(=O)CCNC2CCN(c3cccc(-c4cc5ccccc5[nH]4)c3)CC2)CC1 | 140 |
| CC(C)(C)OC(=O)N1CCCN(CCNC2CCN(c3cccc(-c4cc5ccccc5[nH]4)c3)CC2)CC1 | 1100 |
| CCOC(=O)Nc1cccc(N2CCC(NCCN3CCN(C(C)C)CC3)CC2)c1 | 1700 |
| N#Cc1ccc2[nH]c(-c3cccc(N4CCC(NCc5cccc(N=[N+]=[N-])c5)CC4)c3)cc2c1 | 160 |
| N#Cc1ccc2[nH]c(-c3cccc(N4CCC(NCc5ccccc5)CC4)c3)cc2c1 | 430 |
| CN1CCN(C(=O)CCNC2CCN(c3cccc(-c4cc5cc(C#N)ccc5[nH]4)c3)CC2)CC1 | 320 |
| CN1CCN(C(C)(C)CNC2CCN(c3cccc(-c4cc5ccccc5[nH]4)c3)CC2)CC1 | 450 |
| CC(C)N1CCN(CCNC2CCN(c3ccc4c(c3)-c3[nH]c5ccccc5c3CC4)CC2)CC1 | 370 |
| CC(C)N1CCN(CCNC2CCN(c3cccc(-c4cc5cc(C#N)ccc5[nH]4)c3)CC2)CC1 | 26 |
| CC(C)N1CCC(NC2CCN(c3cccc(-c4cc5cc(S(C)(=O)=O)ccc5[nH]4)c3)CC2)CC1 | 20000 |
| CC(C)(C)N1CCN(CCNC2CCN(c3cccc(-c4cc5ccccc5[nH]4)c3)CC2)CC1 | 130 |
| CN1CCN(C2(CNC3CCN(c4cccc(-c5cc6cc(F)ccc6[nH]5)c4)CC3)CCC2)CC1 | 15 |
| CC(C)N1CCN(CCNC2CCN(C(=O)c3cccc(-c4cc5ccccc5[nH]4)c3)CC2)CC1 | 13600 |
| Cc1ccc(N2CCC(NC3CCN(C)CC3)CC2)cc1-c1cc2ccccc2[nH]1 | 350 |
| c1cncc(CNC2CCN(c3cccc(-c4cc5ccccc5[nH]4)c3)CC2)c1 | 740 |
| Cc1c(-c2cccc(N3CCC(NCCN4CCN(C(C)C)CC4)CC3)c2)[nH]c2ccccc12 | 12000 |
| Cc1ccc(N2CCC(NCC3(N4CCN(C(C)C)CC4)CCC3)CC2)cc1-c1cc2cc(F)ccc2[nH]1 | 320 |
| CN1CCC(NC2CCN(c3cccc(-c4cc5cc(F)ccc5[nH]4)c3)CC2)CC1 | 180 |
| CC(C)N1CCN(CCNC2CCN(c3cccc(-c4cc5cc(S(F)(F)(F)(F)F)ccc5[nH]4)c3)CC2)CC1 | 21000 |

| Compound | IC50 [nM] |
| --- | --- |
| CN1CCC(NC2CCN(c3cccc(-c4cc5ccccc5[nH]4)c3)CC2)CC1 | 380 |
| Cc1ccc2[nH]c(-c3cccc(N4CCC(NCCN5CCN(C(C)C)CC5)CC4)c3)cc2c1 | 200 |
| [N-]=[N+]=Nc1ccc(NCCNC2CCN(c3cccc(-c4cc5ccccc5[nH]4)c3)CC2)cc1 | 5600 |
| Cc1c(-c2cccc(N3CCC(NC4CCN(C)CC4)CC3)c2)[nH]c2ccccc12 | 22000 |
| Cc1ccc(N2CCC(NCCN3CCN(C(C)C)CC3)CC2)cc1-c1cc2cc(C#N)ccc2[nH]1 | 86 |
| CC(C)N1CCN(CCNC2CCN(c3cccc(-c4cc5cc(C(F)(F)F)ccc5[nH]4)c3)CC2)CC1 | 6000 |
| CC(C)N1CCN(CCNC2CCN(c3cccc(-c4cc5cc(F)c(F)cc5[nH]4)c3)CC2)CC1 | 330 |
| CC(C)N1CCN(CCNC2CCN(c3cccc(-c4cc5cc(N=[N+]=[N-])ccc5[nH]4)c3)CC2)CC1 | 200 |
| CN(C)CCNC1CCN(c2cccc(-c3cc4ccccc4[nH]3)c2)CC1 | 570 |
| CC(C)N1CCN(CCNC2CCN(c3cccc(-c4cc5c([nH]4)CCNC5)c3)CC2)CC1 | 11000 |
| Cc1ccc(N2CCC(NCCN3CCN(C(C)C)CC3)CC2)cc1-c1cc2ccccc2[nH]1 | 140 |
| FC(F)(F)CN1CCN(CCNC2CCN(c3cccc(-c4cc5ccccc5[nH]4)c3)CC2)CC1 | 1300 |
| c1ccc(CCNC2CCN(c3cccc(-c4cc5ccccc5[nH]4)c3)CC2)nc1 | 720 |
| Cc1ccc(N2CCC(NCCc3ncnn3C)CC2)cc1-c1cc2ccccc2[nH]1 | 4500 |
| CC(C)N1CCN(CCNC2CCN(c3cccc(-c4cc5cc(O)ccc5[nH]4)c3)CC2)CC1 | 100 |
| CC(C)N1CCC(NC(=O)C2CCN(c3cccc(-c4cc5cc(F)ccc5[nH]4)c3)CC2)CC1 | 3900 |
| Cc1ccc(N2CCC(NCC3(N4CCN(C(C)C)CC4)CCC3)CC2)cc1-c1cc2cc(C#N)ccc2[nH]1 | 100 |
| c1ccc(CCNC2CCN(c3cccc(-c4cc5ccccc5[nH]4)c3)CC2)cc1 | 2700 |
| c1cc(-c2cc3ccccc3[nH]2)cc(N2CCC(NCCN3CCCNCC3)CC2)c1 | 320 |
| CC(C)N1CCN(CC(=O)NC2CCN(c3cccc(-c4cc5ccccc5[nH]4)c3)CC2)CC1 | 7600 |
| CC(C)N1CCC(NC2CCN(c3cccc(-c4cc5cc(Cl)ccc5[nH]4)c3)CC2)CC1 | 92 |

| Compound | IC50 [nM] |
| --- | --- |
| Cn1ncnc1CCNC1CCN(c2cccc(-c3cc4cc(F)c(F)cc4[nH]3)c2)CC1 | 2200 |
| Cc1ccc(CNC2CCN(c3cccc(-c4cc5ccccc5[nH]4)c3)CC2)o1 | 890 |
| CC(C)N1CCN(CCCNC2CCN(c3cccc(-c4cc5ccccc5[nH]4)c3)CC2)CC1 | 370 |
| CC(C)N1CCN(CCNC2CCN(c3cccc(-c4nc5ccccc5n4-c4ccc(C(c5ccccc5)c5ccccc5)cc4)c3)CC2)CC1 | 7100 |
| CC(C)N1CCN(CCNC2CCN(c3ccc(F)c(-c4cc5ccccc5[nH]4)c3)CC2)CC1 | 410 |
| CC(C)N1CCN(C2CCN(c3cccc(-c4cc5cc(F)ccc5[nH]4)c3)CC2)CC1 | 4300 |
| Cc1ncncc1NC(=O)c1cccc(N2CCC(NCCN3CCN(C(C)C)CC3)CC2)c1 | 23000 |
| CC(C)N1CCN(C2(CNC(=O)C3CCN(c4cccc(-c5cc6cc(F)ccc6[nH]5)c4)CC3)CCC2)CC1 | 3800 |
| CC(C)N1CCN(CCC2CCN(c3cccc(-c4cc5ccccc5[nH]4)c3)CC2)CC1 | 6000 |
| [N-]=[N+]=Nc1cccc(CNC2CCN(c3cccc(-c4cc5cc(F)ccc5[nH]4)c3)CC2)c1 | 680 |
| CN1CCC(NC2CCN(c3cncc(-c4cc5ccccc5[nH]4)c3)CC2)CC1 | 25000 |
| CN1CCN(CCCNC2CCN(c3cccc(-c4cc5ccccc5[nH]4)c3)CC2)CC1 | 210 |
| Cc1c(-c2cc3ccccc3[nH]2)cccc1N1CCC(NC2CCN(C)CC2)CC1 | 15000 |
| Cc1ccc(N2CCC(NCCN3CCN(C(C)C)CC3)CC2)cc1-c1cc2cc(F)ccc2[nH]1 | 25 |
| c1cc(-c2cc3ccccc3[nH]2)cc(N2CCC(NCCN3CCN(CC4CC4)CC3)CC2)c1 | 170 |
| CC(C)(C)OC(=O)N1CCN(CCNC2CCN(c3cccc(-c4cc5ccccc5[nH]4)c3)CC2)CC1 | 2400 |
| CC(C)N1CCN(CCNC2CCN(c3cccc(-c4cc5c(F)cccc5[nH]4)c3)CC2)CC1 | 1300 |
| CC(C)N1CCN(CC=C2CCN(c3cccc(-c4cc5ccccc5[nH]4)c3)CC2)CC1 | 5800 |
| CN1[C@@H]2CCC[C@H]1C[C@@H](NC1CCN(c3cccc(-c4cc5ccccc5[nH]4)c3)CC1)C2 | 1300 |
| CC(C)N1CCN(CCNC2CCN(c3cccc(-c4cc5cc(F)cnc5[nH]4)c3)CC2)CC1 | 5300 |
| C[C@@H]1CN(CCNC2CCN(c3cccc(-c4cc5ccccc5[nH]4)c3)CC2)C[C@H](C)N1C | 140 |

| Compound | IC50 [nM] |
| --- | --- |
| CC(C)N1CCC(NC2CCN(c3cccc(-c4cc5ccccc5[nH]4)c3)CC2)CC1 | 130 |
| Cc1ccc(N2CCC(NC3CCN(C(C)C)CC3)CC2)cc1-c1cc2ccccc2[nH]1 | 500 |
| CN1CCN(C2CCN(c3cccc(-c4cc5ccccc5[nH]4)c3)CC2)CC1 | 13000 |
| CC(C)N1CCN(CCNC2CCN(c3cccc(-c4cc5cccc(F)c5[nH]4)c3)CC2)CC1 | 3300 |
| N#Cc1ccc2[nH]c(-c3cccc(N4CCC(NCc5cccnc5)CC4)c3)cc2c1 | 290 |
| CC(C)N1CCN(CCNC2CCN(c3cccc(-c4cc5cc(Cl)ccc5[nH]4)c3)CC2)CC1 | 120 |
| CC(C)N1CCN(CCNC2CCN(c3cccc(-c4[nH]c5ccc(F)cc5c4-c4c(-c5cccc(N6CCC(NCCN7CCN(C(C)C)CC7)CC6)c5)[nH]c5ccc(F)cc45)c3)CC2)CC1 | 9300 |
| Cc1c(-c2cc3ccccc3[nH]2)cccc1N1CCC(NCCN2CCN(C(C)C)CC2)CC1 | 14000 |
| CC(C)N1CCC(NC2CCN(c3cccc(-c4cc5cc(S(N)(=O)=O)ccc5[nH]4)c3)CC2)CC1 | 8600 |
| COCCN1CCN(CCNC2CCN(c3cccc(-c4cc5ccccc5[nH]4)c3)CC2)CC1 | 300 |
| CC(C)N1CCN(C2(CNC3CCN(c4cccc(-c5cc6cc(C#N)ccc6[nH]5)c4)CC3)CCC2)CC1 | 15 |
| FC(F)(F)C(c1ccccc1)N1CCN(CCNC2CCN(c3cccc(-c4cc5ccccc5[nH]4)c3)CC2)CC1 (centres unmarked) | 17000 |
| CN1CCC(NC2CCN(c3cccc(-c4cc5cc(C#N)ccc5[nH]4)c3)CC2)CC1 | 130 |
| c1cc(-c2cc3ccccc3[nH]2)cc(N2CCC(NCCN3CCOCC3)CC2)c1 | 910 |
| CN1CCN(C(=O)CCNC2CCN(c3cccc(-c4cc5ccccc5[nH]4)c3)CC2)CC1 | 290 |
| CC(C)N1CCN(CCOC2CCN(c3cccc(-c4cc5ccccc5[nH]4)c3)CC2)CC1 | 12000 |
| Fc1ccc2[nH]c(-c3cccc(N4CCC(NCCc5c[nH]c6ccccc56)CC4)c3)cc2c1 | 11000 |
| CC(C)N1CCN(C2(CNC3CCN(c4cccc(-c5cc6cc(F)ccc6[nH]5)c4)CC3)CCC2)CC1 | 130 |
| CC(C)N1CCN(CCNC2CCN(c3cccc(-c4cc5ccc(F)cc5[nH]4)c3)CC2)CC1 | 540 |
| CN1CCN(CC2(NC3CCN(c4cccc(-c5cc6ccccc6[nH]5)c4)CC3)CC2)CC1 | 440 |
| O=C1CN(CCNC2CCN(c3cccc(-c4cc5ccccc5[nH]4)c3)CC2)CCN1 | 850 |

Same assay, conditions: p97 ADP-Glo assay, differ from Table 2; read-out: ADP-Glo IC50

| Compound | IC50 [nM] |
| --- | --- |
| CC(C)N1CCN(CCNC2CCN(c3cccc(-c4cc5cc([N+](=O)[O-])ccc5[nH]4)c3)CC2)CC1 [Compound 23, N-(2-(4-Isopropylpiperazin-1-yl)ethyl)-1-(3-(5-nitro-1H-indol-2-yl)phenyl)piperidin-4-amine] | 40 ± 40 |

Same assay, conditions: p97 ADP-Glo assay; read-out: inhibitor of the AAA ATPase (potency in words)

| Compound | IC50 [nM] |
| --- | --- |
| CC(C)N1CCN(CCNC2CCN(c3cccc(-c4cc5cc([N+](=O)[O-])ccc5[nH]4)c3)CC2)CC1 [Compound 23, N-(2-(4-Isopropylpiperazin-1-yl)ethyl)-1-(3-(5-nitro-1H-indol-2-yl)phenyl)piperidin-4-amine] | 40 |
